Reference: the NIST ThermoML archive (doi:10.1021/je050001c)
Structures can show the parent of a compound that is named as a salt.

Conditions: 101.33 kPa, Liquid; for viscosity: Falling or rolling sphere viscometry

CCCC(=O)OCCC(C)C [3-methylbutyl butanoate]
Conditions	mass density [kg/m3]	viscosity [mPa·s]
293.15 K	866.13	1.044
298.15 K	862.04	0.967
303.15 K	859.14	0.897
308.15 K	857.08	0.836
313.15 K	853.42	0.781
318.15 K	850.11	0.731
323.15 K	845.78	0.686
328.15 K	842.31	0.646
333.15 K	840.73	0.609
338.15 K	835.45	0.575
343.15 K	832.76	0.545

CC(=O)OCCC(C)C [3-methylbutyl ethanoate]
Conditions	mass density [kg/m3]	viscosity [mPa·s]
293.15 K	878.24	0.888
298.15 K	876.01	0.827
303.15 K	875.94	0.773
308.15 K	873.1	0.724
313.15 K	870.15	0.678
318.15 K	867.32	0.638
323.15 K	864.31	0.601
328.15 K	860.14	0.567
333.15 K	857.98	0.536
338.15 K	854.05	0.507
343.15 K	851.07	0.481

CCC/C=C/COC(C)=O [(E)-2-hexenyl acetate]
Conditions	mass density [kg/m3]	viscosity [mPa·s]
293.15 K	897.84	0.901
298.15 K	894.32	0.831
303.15 K	891.78	0.77
308.15 K	888.46	0.715
313.15 K	884.35	0.666
318.15 K	880.19	0.622
323.15 K	876.14	0.582
328.15 K	872.81	0.547
333.15 K	867.49	0.514

CC/C=C\CCOC(C)=O [(Z)-3-hexenyl acetate]
Conditions	mass density [kg/m3]	viscosity [mPa·s]
293.15 K	900.82	0.893
298.15 K	897.14	0.823
303.15 K	893.14	0.763
308.15 K	890.28	0.708
313.15 K	886.19	0.66
318.15 K	881.43	0.616
323.15 K	877.89	0.576
328.15 K	875.21	0.542
333.15 K	871.43	0.509

CC/C=C\CCOC=O [(Z)-3-hexenyl formate]
Conditions	mass density [kg/m3]	viscosity [mPa·s]
293.15 K	909.15	0.599
298.15 K	908.13	0.561
303.15 K	906.6	0.527
308.15 K	904.95	0.496
313.15 K	903.17	0.469
318.15 K	901.19	0.443
323.15 K	898.99	0.421
328.15 K	896.72	0.4
333.15 K	894.16	0.38
338.15 K	891.54	0.363
343.15 K	888.73	0.346

CCCCOC(=O)CCC [butyl butanoate]
Conditions	mass density [kg/m3]	viscosity [mPa·s]
293.15 K	872.45	0.948
298.15 K	869.14	0.876
303.15 K	866.1	0.812
308.15 K	862.19	0.755
313.15 K	858.94	0.705
318.15 K	854.31	0.659
323.15 K	851.47	0.618
328.15 K	848.01	0.581
333.15 K	846.22	0.548
338.15 K	844.03	0.517
343.15 K	841.47	0.486

CCCCOC(C)=O [butyl ethanoate]
Conditions	mass density [kg/m3]	viscosity [mPa·s]
293.15 K	881.04	0.732
298.15 K	876.45	0.677
303.15 K	871.3	0.628
308.15 K	866.25	0.585
313.15 K	861.84	0.546
318.15 K	857.32	0.512
323.15 K	854.61	0.481
328.15 K	850.78	0.453
333.15 K	847.92	0.428
338.15 K	844.39	0.405
343.15 K	841.77	0.384

CC/C=C\CCOC(=O)C(C)C [cis-3-hexenyl isobutyrate]
Conditions	mass density [kg/m3]	viscosity [mPa·s]
293.15 K	885.08	1.024
298.15 K	878.12	0.941
303.15 K	873.61	0.868
308.15 K	870.34	0.804
313.15 K	865.22	0.741
318.15 K	861.49	0.69
323.15 K	857.38	0.65
328.15 K	852.44	0.606
333.15 K	848.44	0.56
338.15 K	845.31	0.535
343.15 K	840.09	0.503
